Literature values, collected in US20240325295A1, “AQUEOUS BUMETANIDE-CONTAINING LIQUID” (DriPel B.V., priority 2021, published 2024).
≈ marks a conversion by molar mass, not a printed value.

Tests used:
[1] = at 25° C.
[2] = at 4° C.

SMILES: CCCCNc1cc(C(=O)O)cc(S(N)(=O)=O)c1Oc1ccccc1 [Bumetanide]
- water solubility [1]: 0.026 mg/mL (≈ 0.0713 mM)
- solubility in glycofurol ([2]; glycofurol): 167 mg/mL (≈ 458 mM)
- solubility in polyethylene glycol 200 ([2]; polyethylene glycol 200): 143 mg/mL (≈ 392 mM)
